Converted amounts (≈) assume the structure as drawn.
How the values were obtained:
[1] = target: T1, E. coli gyrase (Escherichia coli, UniProt P0AES4+P0AES6); assay: Gyrase supercoiling (inhibition) assay; type: biochemical
T1 construct: purchased Inspiralis (Norwich, UK)
Procedure: To test the anti-gyrase activity of cystobactamides, commercial E. coli gyrase supercoiling kits (Inspiralis) were used.
For IC50 determination the band intensity of the supercoiled plasmid was determined using Adobe Photoshop, plotted vs. [cystobactamide] and fitted using Hill's equation.
All natural products stock solutions and dilutions were prepared in 100% DMSO and added to the supercoiling reactions giving a final DMSO concentration of 5% (v/v).
Following natural product concentrations were used in the assay:
Control reactions were: no enzyme and a standard reaction in presence of 5% (v/v) DMSO.
All reaction samples were equilibrated for 10 minutes at room-temperature in the absence of DNA. Then the relaxed plasmid was added to start the reaction.
To determine IC50 values, the formation of supercoiled (gyrase) or relaxed (topoisomerase I, II IV) plasmid was quantified using Adobe Photoshop (Histogram mode). […] All determined IC50 values are the averages of three independent experiments.

[2] = test system: Escherichia coli ATCC25922; assay: Susceptibility testing, MIC microdilution; type: cell-based
Procedure: (§1) Bacterial wildtype strains used in susceptibility assays were either part of our strain collection or purchased from the German Collection of Microorganisms and Cell Cultures (DSMZ) or from the American Type Culture Collection (ATCC). E. coli strain WT^[6] and E. coli mutants were kindly provided by Prof. Dr. P. Heisig, Pharmaceutical Biology and Microbiology, University of Hamburg.
(§2) MIC values were determined in microdilution assays. Overnight cultures were diluted in the appropriate growth medium to achieve an inoculum of 10^4-10^6 cfu/mL. Yeasts were grown in Myc medium (1% phytone peptone, 1% glucose, 50 mM HEPES, pH 7.0), S. pneumonia and E. faecalis in tryptic soy broth (TSB: 1.7% peptone casein, 0.3% peptone soymeal, 0.25% glucose, 0.5% NaCl, 0.25% K2HPO4; pH 7.3); M. smegmatis in Middlebrook 7H9 medium supplemented with 10% Middlebrook ADC enrichment and 2 ml/l glycerol). All other listed bacteria were grown in Müller-Hinton broth (0.2% beef infusion solids, 1.75% casein hydrolysate, 0.15% starch, pH 7.4). Cystobactamides and reference drugs were added directly to the cultures in sterile 96-well plates as duplicates and serial dilutions were prepared. Microorganisms were grown on a microplate shaker (750 rpm, 30-37° C., 18-48 h), except S. pneumonia, which was grown at non-shaking conditions (37° C., 5% CO2, 18 h). Growth inhibition was assessed by visual inspection and the MIC was defined as the lowest concentration of compound that inhibited visible growth.

[3] = test system: Bacillus subtilis DSM-10; assay: Susceptibility testing, MIC microdilution; type: cell-based; details: Bacillus subtilis, DSM10
Procedure: as §1, §2

[4] = test system: Acinetobacter baumannii DSM-30008; assay: Susceptibility testing, MIC microdilution; type: cell-based; details: Acinetobacter baumannii, DSM30008
Procedure: as §1, §2

[5] = test system: Enterococcus faecalis ATCC29212; assay: Susceptibility testing, MIC microdilution; type: cell-based
Procedure: as §1, §2

[6] = test system: Klebsiella pneumoniae DSM-30104; assay: Susceptibility testing, MIC microdilution; type: cell-based; details: Klebsiella pneumoniae, DSM30104
Procedure: as §1, §2

[7] = test system: Micrococcus luteus DSM-1790; assay: Susceptibility testing, MIC microdilution; type: cell-based; details: Micrococcus luteus, DSM1790
Procedure: as §1, §2

[8] = test system: Escherichia coli DSM-1116; assay: Susceptibility testing, MIC microdilution; type: cell-based; details: Escherichia coli, DSM1116
Procedure: as §1, §2

[9] = test system: Enterobacter aerogenes DSM-30053; assay: Susceptibility testing, MIC microdilution; type: cell-based; details: Klebsiella aerogenes, DSM30053
Procedure: as §1, §2

[10] = test system: Escherichia coli DSM-12242 (NAL^R); assay: Susceptibility testing, MIC microdilution; type: cell-based; details: Escherichia coli, DSM12242
Procedure: as §1, §2

[11] = test system: Mycobacterium smegmatis mc^2155 ATCC700084; assay: Susceptibility testing, MIC microdilution; type: cell-based; details: Mycolicibacterium smegmatis, ATCC700084|MC^2155
Procedure: as §1, §2

[12] = test system: Candida albicans DSM-1665; assay: Susceptibility testing, MIC microdilution; type: cell-based; details: Candida albicans, DSM1665
Procedure: as §1, §2

[13] = test system: Pseudomonas aeruginosa ATCC27853; assay: Susceptibility testing, MIC microdilution; type: cell-based
Procedure: as §1, §2

[14] = test system: Pseudomonas aeruginosa PA14; assay: Susceptibility testing, MIC microdilution; type: cell-based
Procedure: as §1, §2

[15] = test system: Burkholderia cenocepacia DSM-16553; assay: Susceptibility testing, MIC microdilution; type: cell-based; details: Burkholderia cenocepacia, DSM16553
Procedure: as §1, §2

[16] = test system: Staphylococcus aureus ATCC29213; assay: Susceptibility testing, MIC microdilution; type: cell-based
Procedure: as §1, §2

[17] = test system: Streptococcus pneumoniae DSM-20566; assay: Susceptibility testing, MIC microdilution; type: cell-based; details: Streptococcus pneumoniae, DSM20566
Procedure: as §1, §2

[18] = test system: Escherichia coli DSM-26863 (tolC3); assay: Susceptibility testing, MIC microdilution; type: cell-based; details: Escherichia coli, DSM26863
Procedure: as §1, §2

[19] = test system: Escherichia coli ATCC35218; assay: Susceptibility testing, MIC microdilution; type: cell-based
Procedure: as §1, §2

[20] = test system: Chromobacterium violaceum DSM-30191; assay: Susceptibility testing, MIC microdilution; type: cell-based; details: Chromobacterium violaceum, DSM30191
Procedure: as §1, §2

[21] = test system: Pichia anomala DSM-6766; assay: Susceptibility testing, MIC microdilution; type: cell-based; details: Hansenula anomala, DSM6766
Procedure: as §1, §2

[22] = test system: E. coli WT; assay: Susceptibility of mutant E. coli strains, MIC; type: cell-based; details: Escherichia coli
From the text: Cystobactamides were screened using a panel of E. coli strains with typical mutations in gyrA and parC genes (Table 11).
High-level quinolone resistance often results from a combination of several target site mutations and altered efflux mechanisms. […] This, in turn, leads to overproduction of MarA and AcrAB and overexpression of the AcrAB efflux pump is associated with the MAR (multiple antibiotic resistance) phenotype.^[5]
as §1, §2

[23] = IC50 in the Gyrase inhibition assay, table, averages of three independent experiments
[24] = apparent IC50, E. coli gyrase, E. coli gyrase 20.5 nM eq. 1 unit

T1 sequence (P0AES4 whole entry, one chain of several): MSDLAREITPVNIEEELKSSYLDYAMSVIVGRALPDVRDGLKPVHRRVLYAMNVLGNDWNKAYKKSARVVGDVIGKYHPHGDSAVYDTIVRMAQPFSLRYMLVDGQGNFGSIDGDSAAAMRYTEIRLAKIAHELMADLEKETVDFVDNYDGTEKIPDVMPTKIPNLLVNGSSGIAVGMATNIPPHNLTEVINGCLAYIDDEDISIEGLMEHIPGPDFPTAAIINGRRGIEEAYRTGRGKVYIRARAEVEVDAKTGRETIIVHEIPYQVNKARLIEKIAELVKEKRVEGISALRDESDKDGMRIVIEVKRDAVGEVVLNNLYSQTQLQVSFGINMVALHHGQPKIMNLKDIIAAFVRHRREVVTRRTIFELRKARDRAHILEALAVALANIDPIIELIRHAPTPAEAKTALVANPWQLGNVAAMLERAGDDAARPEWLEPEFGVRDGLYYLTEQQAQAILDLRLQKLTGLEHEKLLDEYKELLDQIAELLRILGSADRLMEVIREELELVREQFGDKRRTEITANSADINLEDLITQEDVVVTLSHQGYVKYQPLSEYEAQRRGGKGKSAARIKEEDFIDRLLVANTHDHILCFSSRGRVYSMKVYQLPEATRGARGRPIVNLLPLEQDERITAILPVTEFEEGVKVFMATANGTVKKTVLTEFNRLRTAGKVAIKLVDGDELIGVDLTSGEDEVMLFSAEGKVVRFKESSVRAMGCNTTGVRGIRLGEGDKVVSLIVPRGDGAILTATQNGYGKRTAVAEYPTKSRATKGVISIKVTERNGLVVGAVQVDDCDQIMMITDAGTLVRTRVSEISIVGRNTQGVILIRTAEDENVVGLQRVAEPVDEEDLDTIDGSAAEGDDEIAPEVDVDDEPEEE

Compound | IC50 ([1]; IC50 gyrase, E. coli gyrase) [µM] | IC50 [1, 23] [µM] | IC50 [1, 24] [µM] | MIC [2] [µg/mL] | MIC [3] [µg/mL] | MIC [4] [µg/mL] | MIC [5] [µg/mL] | MIC [6] [µg/mL] | MIC [7] [µg/mL] | MIC [8] [µg/mL] | MIC [9] [µg/mL] | MIC [10] [µg/mL] | MIC [11] [µg/mL] | MIC [12] [µg/mL] | MIC [13] [µg/mL] | MIC [14] [µg/mL] | MIC [15] [µg/mL] | MIC [16] [µg/mL] | MIC [17] [µg/mL] | MIC [18] [µg/mL] | other results
CO[C@H](C(=O)Nc1ccc(C(=O)Nc2ccc(C(=O)Nc3ccc(C(=O)O)cc3OC(C)C)c(O)c2OC(C)C)cc1)[C@H](NC(=O)c1ccc(NC(=O)c2ccc([N+](=O)[O-])cc2)cc1)C(=O)O [cystobactamide A, Cystobactamide A] | 6 | 6 | 6 | 0.5 (≈ 0.543 µM) | 0.12 (≈ 0.13 µM) | 7.4 (≈ 8.04 µM) | 0.06 (≈ 0.0652 µM) | > 59 | 0.06 (≈ 0.0652 µM) | 0.9 (≈ 0.977 µM) | > 59 | 0.9 (≈ 0.977 µM) | > 59 | > 59 | > 59 | > 59 | > 59 | 0.12 (≈ 0.13 µM) | 0.23 (≈ 0.25 µM) | 0.5 (≈ 0.543 µM) | MIC [19]: 0.9 µg/mL (≈ 0.977 µM); MIC [20]: > 59 µg/mL; MIC [21]: > 59 µg/mL; MIC [22]: 0.5 µg/mL
CC(C)Oc1cc(C(=O)O)ccc1NC(=O)c1ccc(NC(=O)c2ccc(N)cc2)c(OC(C)C)c1O [cystobactamide C, Cystobactamide C] | 7.2 | 7.2 | 7.7 | 8.1 (≈ 16 µM) | 2 (≈ 3.94 µM) | 32.5 (≈ 64 µM) | 4.1 (≈ 8.08 µM) | 65 (≈ 128 µM) | 4.1 (≈ 8.08 µM) | 16.3 (≈ 32.1 µM) | > 33 | 8.1 (≈ 16 µM) | > 65 | > 65 | 65 (≈ 128 µM) | 65 (≈ 128 µM) | > 65 | 8.1 (≈ 16 µM) | 8.1 (≈ 16 µM) | 4.1 (≈ 8.08 µM) | MIC [19]: 16.3 µg/mL (≈ 32.1 µM); MIC [20]: 16.3 µg/mL (≈ 32.1 µM); MIC [21]: > 65 µg/mL; MIC [22]: 8.1 µg/mL

From patent US11225503B2, “Crystobactamides” (HELMHOLTZ-ZENTRUM FÜR INFEKTIONSFORSCHUNG GMBH, priority 2013, dated 2022)
